Test results taken from patent publication US10576066B2, “Histone deacetylase as a modulator of PDLI expression and activity” (H. LEE MOFFITT CANCER CENTER AND RESEARCH INSTITUTE, INC., priority 2014, dated 2020).

Assays:
[1] = system: B16 melanoma cells; assay: In vivo growth of B16 melanoma in C57BL/6 mice treated with HDAC6 inhibitors; details: wild type B16 melanoma cells in C57BL/6 mice, treated daily with 20 mg/kg; FIG. 7B
Description: Pan-HDAC inhibitors (pan-HDACi) slows the proliferation and improves the immunogenicity of melanoma cells (Woods, D. M., et al. Melanoma Res (2013)). However, the non-selective nature of pan-HDACi makes the assumption of the specific participation of HDACs on these processes impossible. […] The next step was identifying if HDAC6KD would affect the growth of melanoma cells in vivo. […] A similar result was obtained in another experiment injecting wild type B16 melanoma cells into C57BL/6 mice treated daily with 20 mg/kg of the HDAC6inh Nexturastat A or Nexturastat B (FIG. 7B). The amount of PDL1 and activation of STAT3 was decreased in tumors isolated after the in vivo treatment with HDAC6inh (FIG. 7C).
These in vitro results were further supported by in vivo tumor growth studies. […] A similar outcome was identified after inoculation of HDAC6KD B16 melanoma cells in C57BL/6 mice (FIG. 14A). […] This delay in tumor growth could be a reflection of their diminished proliferation and an increase in their immunogenicity leading to improved immune recognition and clearance. These studies provide critical insights into the molecular pathways that are involved in the regulatory role of HDAC6 in cell proliferation, survival, and cytokine signaling of human melanoma cells.

[2] = system: B16 WT melanoma; assay: In vivo growth of B16 WT melanoma in SCID mice treated with HDAC6 inhibitor; details: FIG. 14A
Protocol: FIGS. 14A and 14B show differences in growth of melanoma cells after HDAC6 inhibition in altered immune systems. […] Mice were treated with antibodies to deplete CD4, CD8, and NK cells.

[3] = system: PDL1; assay: PDL1 expression by flow cytometry in melanoma cell lines treated with HDACi; type: cell-based; details: two murine and five human melanoma cell lines, up to 72 hours, relative to DMSO; FIG. 22
Protocol: B16, WM983A, Sk-Mel21, WM1366, WM35, and WM793 melanoma cells lines were treated with DMSO (“D”), 10 nM LBH589 (“LB”), 500 nM MGCD0103 (“MG”), or 500 nM MS275 (“MS”) for 72 hours. PDL1 expression was assessed by flow cytometry. Histograms shown are for PDL1 expression or autofluorescence (solid grey) of 10,000 cells or more.
Melanoma cell lines were treated with DMSO, 10 nM LBH589 (squares), 1.5 μM ACY1215 (triangles), 500 nM MS275 (diamonds), 500 nM CLB66 (circles), or 500 nM MGCD0103 (X). PDL1 expression at indicated time points was assessed by flow cytometry. Voltages between time point measurements was standardized using rainbow beads with standard emissions. Mean fluorescence intensity minus autofluorescencee is graphed for each time point. DMSO treatment was plotted as zero hours.
In this Example, HDACi targeting class I HDACs, but not class II, is shown to augment expression of PDL1 in melanoma cells. Two murine and five human melanoma cell lines were treated for up to 72 hours with DMSO, LBH589 (pan-HDACi), MS275 (class I inhibitor), MGCD0103 (class I inhibitor), an HDAC6 specific inhibitor, or a class IIa inhibitor (FIG. 21). […] Increased expression was noted as early as 24 hours after treatment and peaked at 72 to 96 hours post-treatment (FIG. 23).

[4] = system: PDL1; assay: PDL1 expression in B16 tumors of LBH589-treated mice (flow cytometry); type: in vivo, C57BL/6 mice; details: 15 mg/kg IP Mon, Wed, Fri, one week, FIG. 24
Protocol: C57BL/6 mice were injected subcutaneously with 100,000 B16 cells. When tumors became palpable, treatment with 15 mg/kg LBH589 via IP injection began on a Mon, Wed, Fri schedule. After one week of treatment, mice were sacrificed, tumors harvest and analyzed by flow cytometry for PDL1 expression.

[5] = system: Multiple Myeloma; details: preliminary studies (Santo et al. 2012); cited from earlier work
[6] = system: HDAC6; assay: Recruitment of HDAC6 to the IL-10 promoter; type: cell-based; details: cells treated with STAT3 inhibitor
Description: HDAC6 is recruited to regulatory sequences in gene promoters such as MYC (Toropainen, S., et al. J Mol Biol. 400:284-294 (2010)), glucocorticoid receptor (Govindan, M. V. J Biol Chem. 285:4489-4510 (2010)) and estrogen receptor a-inducible genes (Palijan, A., et al. J Biol Chem. 284:30264-30274 (2009)). However, there is no evidence showing that HDAC6 is directly affecting the acetylation status of chromatin. […] Thus, the transcriptional regulatory effects observed for HDAC6 could be mediated by other regulatory factors recruited along with this deacetylase to specific DNA sequences. […] HDAC6 and STAT3 are recruited to the same region of the IL-10 promoter, and the recruitment of HDAC6 is impaired when cells are treated with the STAT3 inhibitor CPA-7.

## CCCCN(Cc1ccc(C(=O)NO)cc1)C(=O)Nc1ccc2cn[nH]c2c1 [Nexturastat B]
[1]
  tumor growth: delayed tumor growth
[2]
  in vivo growth of B16 WT melanoma: not significantly different

## Cc1[nH]c2ccccc2c1CCNCc1ccc(/C=C/C(=O)NO)cc1 [LBH589]
[3]
  PDL1 expression: dose dependent, increases
[4]
  PDL1 expression in vivo: upregulates

## O=C(CCCCCCNC(=O)c1cnc(N(c2ccccc2)c2ccccc2)nc1)NO [ACY1215]
[5]
  anti-tumor activity: important anti-tumor activity

## CCCCN(Cc1ccc(C(=O)NO)cc1)C(=O)Nc1ccccc1 [Nexturastat A]
[1]
  tumor growth: delayed tumor growth

## CPA-7
[6]
  recruitment of HDAC6 to the IL-10 promoter: impaired

## Nc1ccccc1NC(=O)c1ccc(CNC(=O)OCc2cccnc2)cc1 [MS275]
[3]
  PDL1 expression: dose dependent, increases

## Nc1ccccc1NC(=O)c1ccc(CNc2nccc(-c3cccnc3)n2)cc1 [MGCD0103]
[3]
  PDL1 expression: dose dependent, increases
